Ten compounds from ChEMBL document CHEMBL5143546, “Synthesis and biological evaluation of quinolone derivatives as transthyretin amyloidogenesis inhibitors and fluorescence sensors” (Bioorg Med Chem, 2022) can be followed below.

Series [1] has as its target T1, Transthyretin (Homo sapiens, UniProt P02766). The experiment in a line: Inhibition of wild-type Transthyretin (unknown origin) expressed in Escherichia coli expression system assessed as acid mediated fibril formation at 7.2 uM measured after 72 hrs by UV-vis spectrophotometry. Further details: scale not given: the % may be the effect or the level left.
Series [2] relates to Transthyretin (Homo sapiens), P02766 [V50M]. The experiment in a line: Inhibition of Transthyretin V30M mutant (unknown origin) assessed as acid mediated fibril formation at 3.6 uM measured after 72 hrs by UV-vis spectrophotometry. Further details: scale not given: the % may be the effect or the level left.
Series [3] deals with T1, Transthyretin. The experiment in a line: Inhibition of wild-type Transthyretin (unknown origin) expressed in Escherichia coli expression system assessed as acid mediated fibril formation at 3.6 uM measured after 72 hrs by UV-vis spectrophotometry. Further details: scale not given: the % may be the effect or the level left.
Series [4] deals with T1, Transthyretin. The experiment in a line: Inhibition of urea-induced Transthyretin denaturation in human plasma preincubated for 1 hr followed by urea addition by Western blot analysis. It counts as cell-free. On the technique in general: In western blotting, separated proteins are transferred to a membrane and probed.
In series [5] the test system is Transthyretin (Homo sapiens), P02766 [V50M]. The experiment in a line: Inhibition of Transthyretin V30M mutant (unknown origin) assessed as acid mediated fibril formation at 1.8 uM measured after 72 hrs by UV-vis spectrophotometry. Further details: scale not given: the % may be the effect or the level left.
A short description of series [6]: Metabolic stability in human liver microsome assessed as percentage of compound remaining at 1 uM measured after 30 min by LC-MS/MS analysis. The note with it: liver microsomes, read-out: Stability. Type of series: ADME.
The nature of series [7]: Metabolic stability in rat plasma assessed as percentage of compound remaining at 1 uM measured after 1 hr by LC-MS/MS analysis. Type of series: ADME, cell-free. The note with it: read-out: Stability.
Series [8] in a line: Metabolic stability in rat liver microsome assessed as half life at 1 uM by LC-MS/MS analysis. It counts as ADME. The settings on record: liver microsomes. In general terms: Microsomes from liver hold many membrane-bound enzymes, among them those of drug oxidation.
A short description of series [9]: Metabolic stability in rat plasma assessed as half life at 1 uM by LC-MS/MS analysis. It counts as ADME, cell-free.
Series [10] is described as follows: Metabolic stability in human liver microsome assessed as half life at 1 uM by LC-MS/MS analysis. Type of series: ADME. The note with it: liver microsomes.
The nature of series [11]: Metabolic stability in rat liver microsome assessed as percentage of compound remaining at 1 uM measured after 30 min by LC-MS/MS analysis. Type of series: ADME. The settings on record: liver microsomes, read-out: Stability.

What is called IC50 is the midpoint of a concentration-inhibition curve. As a reminder, the half-life is how long it takes for the measured level to halve.

`COc1cc2c(C)c(/C=C/c3c(C)n[nH]c3C)c(=O)n(C)c2cc1N`: the Activity at Transthyretin [1] was found to be 14.3%.
Regarding `O=C(O)c1ccc2nc(-c3cc(Cl)cc(Cl)c3)oc2c1`, the Activity stood at 15.9% in series [2] and 3.6% on Transthyretin [1].
With `Cc1cc(/C=C/c2c(C)c3ccc(O)cc3n(C)c2=O)cc(C)c1O`, the Activity at Transthyretin [3] turned out to be 24.5%; at Transthyretin [1] it was 5.9%.
In turn, `Cc1cc(CCc2c(C)c3ccc(O)cc3n(C)c2=O)cc(C)c1O` had an IC50 at Transthyretin [4] of 13.7 µM. Moreover, the Activity on Transthyretin [3] worked out at 20.8%; in series [2], 26.5%; in series [5] it was 56.6%; on Transthyretin [1], 3.1%.
As for `COc1cc2c(C)c(/C=C/c3cc(C)c(O)c(C)c3)c(=O)n(C)c2cc1N`, on Transthyretin [4], the IC50 was 11.4 µM. In addition, the Activity on Transthyretin [3] was found to be 15.7%; in [2] it was 22.9%; in series [5] it was 55.3%; on Transthyretin [1], 6%. Further, the remaining at 0.5 h, 1 µM in series [6] is 71.5%; in series [11], 59.9%. The remaining at 1 h, 1 µM in series [7] was 86.8%. In addition, the half-life at 1 µM came to 0.758 h in [8], 2.33 h in series [9] and 1.01 h in series [10].
Regarding `Cc1cc(/C=C/c2c(C)c3ccc(N)cc3n(C)c2=O)cc(C)c1O`, at Transthyretin [4], inhibition was half-maximal at 3.1 µM (IC50). Besides, the Activity on Transthyretin [3] came to 12.8%; in series [2], 16.7%; in series [5], 49.6%; at Transthyretin [1], 3.4%. Besides, the results for the remaining at 0.5 h, 1 µM in series [6] and in [11] were 76.9% and 57.2%, respectively. For the same compound, in series [7], the remaining at 1 h, 1 µM is at least 100%. The results for the half-life at 1 µM in series [8], in series [9] and in [10] were 0.603 h, at least 10 h and 1.59 h, respectively.
For `COc1cc2c(C)c(CCc3cc(C)c(O)c(C)c3)c(=O)n(C)c2cc1N`, the Activity was 31.8% at Transthyretin [3] and 2.5% at Transthyretin [1].
For `Cc1cc(CCc2c(C)c3ccc(N)cc3n(C)c2=O)cc(C)c1O`, the midpoint of inhibition against Transthyretin [4], the IC50, lay at 14.4 µM. In addition, the Activity at Transthyretin [3] was 16.4%; in series [2] it was 22.1%; in [5], 54.8%; on Transthyretin [1], 2.3%.
Regarding `Cc1n[nH]c(C)c1/C=C/c1c(C)c2ccc(N)cc2n(C)c1=O`, the Activity was found to be 28.1% on Transthyretin [3] and 1.8% at Transthyretin [1].
On the same counts, the results for `Cc1n[nH]c(C)c1CCc1c(C)c2ccc(N)cc2n(C)c1=O` are 34.8% and 11.6%.
